# Source: ChEMBL document CHEMBL1201861, “Genomics of Drug Sensitity in Cancer screening data, Wellcome Trust Sanger Institute”
# Key:
# Test in all cases: cells
# Calu-6 = format: functional, cell-based, Homo sapiens; settings: Homo sapiens, Calu-6;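 note: growth of human Calu-6 cells, read out by a cell viability assay, IC50 marking inhibition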
# Description: SANGER: Inhibition of human Calu-6 cell growth in a cell viability assay.
# KALS-1 = format: functional, cell-based, Homo sapiens; settings: Homo sapiens, KALS-1; read-out: IC50;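 note: growth inhibition of KALS-1 cells, determined with a cell viability assay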
# Description: SANGER: Inhibition of human KALS-1 cell growth in a cell viability assay.
# A704 = format: functional, cell-based; settings: Homo sapiens;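 note: growth inhibition of human A704 cells, read out with a cell viability assay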
# Description: SANGER: Inhibition of human A704 cell growth in a cell viability assay.
# MZ2-MEL = format: functional, cell-based, Homo sapiens; settings: Homo sapiens, MZ2-MEL;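 note: growth inhibition of MZ2-MEL cells read out with a cell viability assay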
# Description: SANGER: Inhibition of human MZ2-MEL cell growth in a cell viability assay.
# DEL = format: functional, cell-based, Homo sapiens; settings: Homo sapiens, DEL;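 note: growth inhibition of the human DEL cell line, read out with a cell viability assay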
# Description: SANGER: Inhibition of human DEL cell growth in a cell viability assay.
# C2BBe1 = format: functional, cell-based, Homo sapiens; settings: Homo sapiens, C2BBe1;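 note: growth inhibition of C2BBe1 cells, read out through a viability assay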
# Description: SANGER: Inhibition of human C2BBe1 cell growth in a cell viability assay.
# ES8 = format: functional, cell-based, Homo sapiens; settings: Homo sapiens, ES8;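 note: growth inhibition of human ES8 cells, read out with a cell viability assay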
# Description: SANGER: Inhibition of human ES8 cell growth in a cell viability assay.
# TE-5 = format: functional, cell-based, Homo sapiens; settings: Homo sapiens, TE-5;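 note: inhibition of cell growth, read out by a cell viability assay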
# Description: SANGER: Inhibition of human TE-5 cell growth in a cell viability assay.
# LOX IMVI = format: functional, cell-based, Homo sapiens; settings: Homo sapiens, LOX IMVI
# Description: SANGER: Inhibition of human LOXIMVI cell growth in a cell viability assay.
# Ramos-2G6-4C10 = format: functional, cell-based, Homo sapiens; settings: Homo sapiens, Ramos-2G6-4C10;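 note: growth inhibition of the cell line, measured by a cell viability read-out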
# Description: SANGER: Inhibition of human Ramos-2G6-4C10 cell growth in a cell viability assay.
# EW-1 = format: functional, cell-based, Homo sapiens; settings: Homo sapiens, EW-1
# Description: SANGER: Inhibition of human EW-1 cell growth in a cell viability assay.
# GCIY = format: functional, cell-based, Homo sapiens; settings: Homo sapiens, GCIY;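 note: growth inhibition of the human GCIY cell line, read out by a cell viability assay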
# Description: SANGER: Inhibition of human GCIY cell growth in a cell viability assay.
# no-10 = format: functional, cell-based, Homo sapiens; settings: Homo sapiens;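 note: growth inhibition of no-10 cells, read out with a cell viability assay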
# Description: SANGER: Inhibition of human no-10 cell growth in a cell viability assay.
# SK-NEP-1 = format: functional, cell-based, Homo sapiens; settings: Homo sapiens, SK-NEP-1;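 note: growth inhibition of human SK-NEP-1 cells, read out by a cell viability assay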
# Description: SANGER: Inhibition of human SK-NEP-1 cell growth in a cell viability assay.
# A101D = format: functional, cell-based, Homo sapiens; settings: Homo sapiens, A101D;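 note: growth inhibition of the cell line, measured with a viability assay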
# Description: SANGER: Inhibition of human A101D cell growth in a cell viability assay.
# LS-513 = format: functional, cell-based, Homo sapiens; settings: Homo sapiens, LS-513
# Description: SANGER: Inhibition of human LS-513 cell growth in a cell viability assay.
# COLO-829 = format: functional, cell-based, Homo sapiens; settings: Homo sapiens, COLO-829
# Description: SANGER: Inhibition of human COLO-829 cell growth in a cell viability assay.
# Mo = format: functional, cell-based, Homo sapiens; settings: Homo sapiens, Mo
# Description: SANGER: Inhibition of human Mo-T cell growth in a cell viability assay.
# L-428 = format: functional, cell-based, Homo sapiens; settings: Homo sapiens, L-428
# Description: SANGER: Inhibition of human L-428 cell growth in a cell viability assay.
# RS4-11 = format: functional, cell-based, Homo sapiens; settings: Homo sapiens, RS4-11;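 note: growth inhibition of RS4-11 cells, read out by a cell viability assay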
# Description: SANGER: Inhibition of human RS4-11 cell growth in a cell viability assay.
# D-263MG = format: functional, cell-based, Homo sapiens; settings: Homo sapiens, D-263MG
# Description: SANGER: Inhibition of human D-263MG cell growth in a cell viability assay.
# TGBC1TKB = format: functional, cell-based, Homo sapiens; settings: Homo sapiens, TGBC1TKB;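 note: growth inhibition of TGBC1TKB cells, read out by a cell viability assay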
# Description: SANGER: Inhibition of human TGBC1TKB cell growth in a cell viability assay.
# COLO-684 = format: functional, cell-based, Homo sapiens; settings: Homo sapiens, COLO-684
# Description: SANGER: Inhibition of human COLO-684 cell growth in a cell viability assay.
# DJM-1 = format: functional, cell-based, Homo sapiens; settings: Homo sapiens, DJM-1;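 note: growth inhibition of human DJM-1 cells, read out by a cell viability assay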
# Description: SANGER: Inhibition of human DJM-1 cell growth in a cell viability assay.
# NCI-H82 = format: functional, cell-based, Homo sapiens; settings: Homo sapiens, NCI-H82;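 note: growth inhibition of NCI-H82 cells, measured with a cell viability readout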
# Description: SANGER: Inhibition of human NCI-H82 cell growth in a cell viability assay.
# SH-4 = format: functional, cell-based; settings: Homo sapiens;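 note: growth inhibition of SH-4 cells, read out with a cell viability assay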
# Description: SANGER: Inhibition of human SH-4 cell growth in a cell viability assay.
# C8166 = format: functional, cell-based, Homo sapiens; settings: Homo sapiens, C8166;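 note: growth inhibition of human C8166 cells measured by a cell viability assay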
# Description: SANGER: Inhibition of human C8166 cell growth in a cell viability assay.
# ONS-76 = format: functional, cell-based, Homo sapiens; settings: Homo sapiens, ONS-76;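 note: growth inhibition of human ONS-76 cells, read out with a cell viability assay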
# Description: SANGER: Inhibition of human ONS-76 cell growth in a cell viability assay.
# QIMR-WIL = format: functional, cell-based, Homo sapiens; settings: Homo sapiens, QIMR-WIL;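 note: growth inhibition of QIMR-WIL cells, read out with a cell viability assay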
# Description: SANGER: Inhibition of human QIMR-WIL cell growth in a cell viability assay.
# KS-1 = format: functional, cell-based; settings: Homo sapiens;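 note: growth inhibition of KS-1 cells, read out with a cell viability assay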
# Description: SANGER: Inhibition of human KS-1 cell growth in a cell viability assay.
# SCC-15 = format: functional, cell-based, Homo sapiens; settings: Homo sapiens, SCC-15;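 note: growth inhibition of SCC-15 cells, read out with a cell viability assay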
# Description: SANGER: Inhibition of human SCC-15 cell growth in a cell viability assay.
# TE-6 = format: functional, cell-based, Homo sapiens; settings: Homo sapiens, TE-6;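 note: growth inhibition of TE-6 cells, read out with a cell viability assay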
# Description: SANGER: Inhibition of human TE-6 cell growth in a cell viability assay.
# MZ7-mel = format: functional, cell-based, Homo sapiens; settings: Homo sapiens, MZ7-mel;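 note: growth inhibition of human MZ7-mel cells, measured by a cell viability assay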
# Description: SANGER: Inhibition of human MZ7-mel cell growth in a cell viability assay.
# DMS-114 = format: functional, cell-based, Homo sapiens; settings: Homo sapiens, DMS-114
# HAL-01 = format: functional, cell-based, Homo sapiens; settings: Homo sapiens, HAL-01;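 note: growth inhibition of human HAL-01 cells, read out with a cell viability assay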
# Description: SANGER: Inhibition of human HAL-01 cell growth in a cell viability assay.
# IST-SL1 = format: functional, cell-based, Homo sapiens; settings: Homo sapiens, IST-SL1;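 note: growth inhibition of human IST-SL1 cells, read out with a cell viability assay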
# Description: SANGER: Inhibition of human IST-SL1 cell growth in a cell viability assay.
# KM12 = format: functional, cell-based, Homo sapiens; settings: Homo sapiens, KM12;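 note: KM12 cell growth inhibition, read out with a cell viability assay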
# Description: SANGER: Inhibition of human KM12 cell growth in a cell viability assay.
# SW684 = format: functional, cell-based, Homo sapiens; settings: Homo sapiens, SW684; read-out: IC50;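 note: growth inhibition of human SW684 cells, measured by a cell viability assay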
# Description: SANGER: Inhibition of human SW684 cell growth in a cell viability assay.
# LB831-BLC = format: functional, cell-based, Homo sapiens; settings: Homo sapiens, LB831-BLC;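 note: growth inhibition of LB831-BLC cells, read out with a cell viability assay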
# Description: SANGER: Inhibition of human LB831-BLC cell growth in a cell viability assay.
# TK-10 = format: functional, cell-based, Homo sapiens; settings: Homo sapiens, TK-10;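 note: growth inhibition of TK-10 cells, read out in a cell viability assay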
# Description: SANGER: Inhibition of human TK10 cell growth in a cell viability assay.
# L-363 = format: functional, cell-based, Homo sapiens; settings: Homo sapiens, L-363
# Description: SANGER: Inhibition of human L-363 cell growth in a cell viability assay.
# EW-18 = format: functional, cell-based, Homo sapiens; settings: Homo sapiens, EW-18; read-out: IC50;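 note: growth inhibition of EW-18 cells, read out by a cell viability assay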
# Description: SANGER: Inhibition of human EW-18 cell growth in a cell viability assay.
# MHH-PREB-1 = format: functional, cell-based, Homo sapiens; settings: Homo sapiens, MHH-PREB-1;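 note: cell viability assay measuring inhibition of proliferation of human MHH-PREB-1 cells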
# Description: SANGER: Inhibition of human MHH-PREB-1 cell growth in a cell viability assay.
# BB65-RCC = format: functional, cell-based, Homo sapiens; settings: Homo sapiens, BB65-RCC;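 note: growth inhibition of the cell line, measured with a cell viability assay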
# Description: SANGER: Inhibition of human BB65-RCC cell growth in a cell viability assay.
# ES6 = format: functional, cell-based; settings: Homo sapiens;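 note: growth inhibition of human ES6 cells, read out with a cell viability assay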
# Description: SANGER: Inhibition of human ES6 cell growth in a cell viability assay.
# IST-MES1 = format: functional, cell-based, Homo sapiens; settings: Homo sapiens, IST-MES1;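 note: growth inhibition of IST-MES1 cells, measured with a cell viability assay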
# Description: SANGER: Inhibition of human IST-MES1 cell growth in a cell viability assay.
# OVCAR-4 = format: functional, cell-based, Homo sapiens; settings: Homo sapiens, OVCAR-4;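 note: growth inhibition of human OVCAR-4 cells, measured with a cell viability assay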
# Description: SANGER: Inhibition of human OVCAR-4 cell growth in a cell viability assay.
# ETK-1 = format: functional, cell-based, Homo sapiens; settings: Homo sapiens, ETK-1;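 note: growth inhibition of human ETK-1 cells, read out with a cell viability assay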
# Description: SANGER: Inhibition of human ETK-1 cell growth in a cell viability assay.
# MEG-01 = format: functional, cell-based, Homo sapiens; settings: Homo sapiens, MEG-01;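 note: growth inhibition of MEG-01 cells, read out by a cell viability assay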
# Description: SANGER: Inhibition of human MEG-01 cell growth in a cell viability assay.
# KNS-81-FD = format: functional, cell-based, Homo sapiens; settings: Homo sapiens, KNS-81-FD;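 note: growth inhibition of KNS-81-FD cells, read out with a cell viability assay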
# Description: SANGER: Inhibition of human KNS-81-FD cell growth in a cell viability assay.
structure (smiles),measurement,setting,value
COc1ccc(N(C(=O)Oc2c(C)cccc2C)c2ccnc(Nc3ccc(N4CCN(C)CC4)cc3)n2)c(OC)c1,IC50,Calu-6,> 5120 nM
same,IC50,KALS-1,> 5120 nM
same,IC50,A704,< 20 nM
same,IC50,MZ2-MEL,3090 nM
same,IC50,DEL,> 5120 nM
same,IC50,C2BBe1,> 5120 nM
same,IC50,ES8,> 5120 nM
same,IC50,TE-5,> 5120 nM
same,IC50,LOX IMVI,> 5120 nM
same,IC50,Ramos-2G6-4C10,> 5120 nM
same,IC50,EW-1,> 5120 nM
same,IC50,GCIY,1230 nM
same,IC50,no-10,> 5120 nM
same,IC50,SK-NEP-1,> 5120 nM
same,IC50,A101D,> 5120 nM
same,IC50,LS-513,> 5120 nM
same,IC50,COLO-829,312 nM
same,IC50,Mo,> 5120 nM
same,IC50,L-428,> 5120 nM
same,IC50,RS4-11,> 5120 nM
same,IC50,D-263MG,2290 nM
same,IC50,TGBC1TKB,> 5120 nM
same,IC50,COLO-684,> 5120 nM
same,IC50,DJM-1,> 5120 nM
same,IC50,NCI-H82,> 5120 nM
same,IC50,SH-4,2120 nM
same,IC50,C8166,> 5120 nM
same,IC50,ONS-76,> 5120 nM
same,IC50,QIMR-WIL,> 5120 nM
same,IC50,KS-1,77.6 nM
same,IC50,SCC-15,> 5120 nM
same,IC50,TE-6,> 5120 nM
same,IC50,MZ7-mel,5090 nM
same,IC50,DMS-114,2790 nM
same,IC50,HAL-01,> 5120 nM
same,IC50,IST-SL1,> 5120 nM
same,IC50,KM12,> 5120 nM
same,IC50,SW684,326 nM
same,IC50,LB831-BLC,127 nM
same,IC50,TK-10,1080 nM
same,IC50,L-363,> 5120 nM
same,IC50,EW-18,> 5120 nM
same,IC50,MHH-PREB-1,> 5120 nM
same,IC50,BB65-RCC,4700 nM
same,IC50,ES6,2050 nM
same,IC50,IST-MES1,357 nM
same,IC50,OVCAR-4,> 5120 nM
same,IC50,ETK-1,> 5120 nM
same,IC50,MEG-01,< 20 nM
same,IC50,KNS-81-FD,> 5120 nM
Cc1cc(N2CCOCC2)cc2[nH]c(-c3c(NC[C@@H](O)c4cccc(Cl)c4)cc[nH]c3=O)nc12,IC50,Calu-6,> 5120 nM
same,IC50,KALS-1,> 5120 nM
same,IC50,A704,1040 nM
same,IC50,MZ2-MEL,4800 nM
same,IC50,DEL,2700 nM
same,IC50,C2BBe1,> 5120 nM
same,IC50,ES8,2300 nM
same,IC50,TE-5,> 5120 nM
same,IC50,LOX IMVI,> 5120 nM
same,IC50,Ramos-2G6-4C10,> 5120 nM
same,IC50,EW-1,173 nM
same,IC50,GCIY,404 nM
same,IC50,no-10,> 5120 nM
same,IC50,SK-NEP-1,> 5120 nM
same,IC50,A101D,1890 nM
same,IC50,LS-513,4170 nM
same,IC50,COLO-829,> 5120 nM
same,IC50,Mo,> 5120 nM
same,IC50,L-428,> 5120 nM
same,IC50,RS4-11,1800 nM
same,IC50,D-263MG,> 5120 nM
same,IC50,TGBC1TKB,2310 nM
same,IC50,COLO-684,> 5120 nM
same,IC50,DJM-1,> 5120 nM
same,IC50,NCI-H82,> 5120 nM
same,IC50,SH-4,882 nM
same,IC50,C8166,> 5120 nM
same,IC50,ONS-76,> 5120 nM
same,IC50,QIMR-WIL,> 5120 nM
same,IC50,KS-1,102 nM
same,IC50,SCC-15,> 5120 nM
same,IC50,TE-6,> 5120 nM
same,IC50,MZ7-mel,> 5120 nM
same,IC50,DMS-114,> 5120 nM
same,IC50,HAL-01,1120 nM
same,IC50,IST-SL1,> 5120 nM
same,IC50,KM12,28.4 nM
same,IC50,SW684,> 5120 nM
same,IC50,LB831-BLC,1500 nM
same,IC50,TK-10,2260 nM
same,IC50,L-363,328 nM
same,IC50,EW-18,> 5120 nM
same,IC50,MHH-PREB-1,> 5120 nM
same,IC50,BB65-RCC,> 5120 nM
same,IC50,ES6,425 nM
same,IC50,IST-MES1,1120 nM
same,IC50,OVCAR-4,4870 nM
same,IC50,ETK-1,96.1 nM
same,IC50,MEG-01,4210 nM
same,IC50,KNS-81-FD,> 5120 nM
NC(=O)c1cccc(-c2cc(Nc3ccc(OC(F)(F)F)cc3)ncn2)c1,IC50,Calu-6,> 1280 nM
same,IC50,KALS-1,> 1280 nM
same,IC50,A704,> 1280 nM
same,IC50,MZ2-MEL,> 1280 nM
same,IC50,DEL,> 1280 nM
same,IC50,C2BBe1,> 1280 nM
same,IC50,ES8,> 1280 nM
same,IC50,TE-5,> 1280 nM
same,IC50,LOX IMVI,> 1280 nM
same,IC50,Ramos-2G6-4C10,> 1280 nM
same,IC50,EW-1,> 1280 nM
same,IC50,GCIY,> 1280 nM
same,IC50,no-10,> 1280 nM
same,IC50,SK-NEP-1,> 1280 nM
same,IC50,A101D,> 1280 nM
same,IC50,LS-513,> 1280 nM
same,IC50,COLO-829,> 1280 nM
same,IC50,Mo,> 1280 nM
same,IC50,L-428,> 1280 nM
same,IC50,RS4-11,> 1280 nM
same,IC50,D-263MG,> 1280 nM
same,IC50,TGBC1TKB,> 1280 nM
same,IC50,COLO-684,> 1280 nM
same,IC50,DJM-1,> 1280 nM
same,IC50,NCI-H82,> 1280 nM
same,IC50,SH-4,> 1280 nM
same,IC50,C8166,> 1280 nM
same,IC50,ONS-76,> 1280 nM
same,IC50,QIMR-WIL,> 1280 nM
same,IC50,KS-1,> 1280 nM
same,IC50,SCC-15,> 1280 nM
same,IC50,TE-6,> 1280 nM
same,IC50,MZ7-mel,> 1280 nM
same,IC50,DMS-114,> 1280 nM
same,IC50,HAL-01,> 1280 nM
same,IC50,IST-SL1,> 1280 nM
same,IC50,KM12,> 1280 nM
same,IC50,SW684,> 1280 nM
same,IC50,LB831-BLC,> 1280 nM
same,IC50,TK-10,> 1280 nM
same,IC50,L-363,> 1280 nM
same,IC50,EW-18,> 1280 nM
same,IC50,MHH-PREB-1,> 1280 nM
same,IC50,BB65-RCC,> 1280 nM
same,IC50,ES6,> 1280 nM
same,IC50,IST-MES1,> 1280 nM
same,IC50,OVCAR-4,> 1280 nM
same,IC50,ETK-1,> 1280 nM
same,IC50,MEG-01,503 nM
same,IC50,KNS-81-FD,> 1280 nM
